# Patent US7105539B2, “Derivatives of succinic and glutaric acids and analogs thereof useful as inhibitors of phex” (Enobia Pharma, priority 2002, dated 2006)
# Experiments:
# [1] = system: rat mandibular defect; experiment: Bone lesion repair in rat mandibular defect model (hydroxyapatite particles soaked in inhibitor); assay type: in vivo; details: for bone formation (scanning electron microscopy, % of total defect area): 14 days healing
# Experimental: Osteogenic properties of PHEX inhibitors can be shown in a model of rat mandibular defect. For example, a 2 mm size bone defect was created in the rat mandible as described previously (Vu et al., 1999). Rats were anesthetized and the vestibular surface of the right mandibular ramus was exposed as follow: an incision was made through the skin along an imaginary line forming a 90° angle with the lower lip to access the muscle layer. A scalpel blade was used to make an incision parallel to the fibers of the deep portion of masseter muscle, about 2 mm posterior to the facial artery (largest branch of the external carotid), in the portion where it gives rise to the labial mandibular artery. The periosteum was elevated and the underlying bony surface exposed. A 2 mm×2 mm bony window was drilled between the second and third molar using a slow-speed dental drill with a carbide round burr size 1.4 mm (Brasseler) and a drill size 2 mm (Straumann Canada Ltd). Saline irrigation was used during the drilling. Porous hydroxyapatite particles (Fin-Ceramica Faenza s.r.l.) with pore size ranged from 450 to 600 μm were accommodated in the bony hole and pushed into it. The particles had been incubated previously in solutions of varying concentrations of PHEX inhibitor or vehicle for 16 to 24 hours at 4° C. Once the bony window was filled the lesion was covered with a membrane of hydroxyapatite (Fin-Ceramica Faenza s.r.l.) which was fixed to the surrounding bone surface with topical tissue adhesive. The muscle fibers were carefully repositioned on the mandible and sutured with absorbable surgical sutures (Chromic Gut, Ethicon Inc.). The skin was sutured for total coverage with silk sutures (Sherwood Davis & Geck, Wayne). After 7 days of treatment the bone lesion was exposed and varying concentrations of PHEX inhibitor or vehicle was reapplied to hydroxyapatite particles. Treatment was continued for another 7 days.
# After the 14 day healing period, bone formation at the defect was evaluated by scanning electron microscopy and microcomputed tomography. Animals were sacrificed by intravascular perfusion through the left ventricle with 4% paraformaldehyde and 0.1% glutaraldehyde solution. Treated hemimandibles were taken, immersed in the fixative overnight at 4° C. then washed and kept in 0.1 M cacodylate buffer pH 8.0 until analysis. Specimens for quantification by scanning electron microscopy were dehydrated in a graded alcohol series and embedded in LR White resin (Marivac) for further sectioning along their longitudinal axis. […] Amount of bone tissue present in the sections was quantified by manual tracing using the MOP-3 system (Carl Zeiss) and was expressed as a percentage of the total defect area. […]
# [2] = target: T1, sPHEX (Homo sapiens, UniProt P78562); experiment: Protection of PHEX substrate PTHrP107-139 from sPHEX degradation (RP-HPLC); assay type: biochemical; details: 1×10^−5M inhibitor, 1.0 μg sPHEX, 30 min, 37° C.; without inhibitor approximately 75% degraded
# T1 construct: The soluble form of the metallopeptidase PHEX (sPHEX) was purified to homogeneity; made in house
# T1 sequence (P78562 53-749 limits assumed): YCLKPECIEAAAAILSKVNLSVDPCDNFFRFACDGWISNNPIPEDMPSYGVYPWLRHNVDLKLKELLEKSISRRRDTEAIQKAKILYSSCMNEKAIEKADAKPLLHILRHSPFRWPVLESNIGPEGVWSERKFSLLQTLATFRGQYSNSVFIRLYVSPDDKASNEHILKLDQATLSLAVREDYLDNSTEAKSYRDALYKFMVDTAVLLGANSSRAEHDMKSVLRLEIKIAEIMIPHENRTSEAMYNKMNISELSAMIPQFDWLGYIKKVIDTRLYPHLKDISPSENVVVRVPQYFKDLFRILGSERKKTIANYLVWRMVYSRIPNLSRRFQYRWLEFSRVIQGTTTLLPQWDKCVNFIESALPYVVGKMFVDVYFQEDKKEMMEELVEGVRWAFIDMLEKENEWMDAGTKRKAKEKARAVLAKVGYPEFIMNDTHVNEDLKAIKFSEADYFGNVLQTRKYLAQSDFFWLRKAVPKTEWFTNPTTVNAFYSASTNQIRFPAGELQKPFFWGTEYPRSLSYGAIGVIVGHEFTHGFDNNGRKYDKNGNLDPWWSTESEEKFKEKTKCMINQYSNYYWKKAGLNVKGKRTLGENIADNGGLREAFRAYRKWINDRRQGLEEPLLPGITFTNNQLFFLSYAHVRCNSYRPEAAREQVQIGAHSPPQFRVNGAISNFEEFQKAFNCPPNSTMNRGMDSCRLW
# Experimental: In general, in order to show inhibition of sPHEX, the enzyme is incubated in the absence or the presence of the inhibiting compound, and a substrate is added in conditions that are suitable for sPHEX enzymatic activity. Hydrolysis of the substrate in the absence or the presence of the inhibiting compound is monitored.
# For example, 1.0 μg of purified sPHEX was first incubated at 37° C. for 15 min with or without 1×10^−5M of compound MH-2-64C (FIG. 1) in 90 μl 50 mM MES (2-(N-morpholino)ethanesulfonic acid) pH 6.5, 150 mM NaCl. Then, 2.5 μg of peptide PTHrP107-139 in 10 μl of the same buffer were added and the incubation continued for 30 min. The reaction mixture also contained 1.3 μg of the amino acid Phe which was used as an internal standard. After the incubation period, the reaction was stopped by the addition of EDTA to a final concentration of 5 mM. Detection of cleavage products was performed by reverse phase high performance liquid chromatography (RP-HPLC) on a C18 μBondapak™ analytical column (Waters, Mississauga, ON, Canada) with a UV detector set at 220 nm. […] Results were quantified by comparing the area under the undigested peak of PTHrP107-139, after normalization for the amount of Phe present in the sample. […]
smiles,measurement,setting,value
"O=C(O)CC(CC(=O)NO)C(=O)NCCc1ccc(-c2ccccc2)cc1 (centres unmarked) [Example 126, 3-(2-Biphenyl-4-yl-ethylcarbamoyl)-4-hydroxycarbamoyl-butyric acid]","bone formation (scanning electron microscopy, % of total defect area)","[1]; 1×10^−5 M on hydroxyapatite particles, compared to saline",reduced significantly
same,bone formation (microcomputed tomography 3D reconstruction),"[1]; high inhibitor dose, one representative specimen",reduced bone formation
same,bone around particles (microcomputed tomography 3D reconstruction),"[1]; low dose of inhibitor vs particles soaked in saline, one representative specimen",more bone
same,"bone formation (scanning electron microscopy, % of total defect area)",[1]; lower concentrations on hydroxyapatite particles,significantly stimulated
same,degradation of PTHrP107-139 by sPHEX,[2],fully prevented
